Data from US11661419B2, “Benzimidazole derivative compounds and uses thereof” (Pfizer Inc., priority 2019, dated 2023).
pIC50: −log10 of the molar value.

Assays:
[1] = test system: IL-2 in activated CD4+ human T-cells; assay: IL-2 inhibition in supernatants from activated CD4+ human T-cells (cisbio HTRF); type: cell-based; conditions: T-cell; geometric mean of count n; CD3/CD28-expanded human CD4+ T cells stimulated with ImmunoCult, 20 to 24 hrs
Description: IL-2-Inhibition Activity, IC50 (uM)
IL-2 inhibition activity in supernatants from activated CD4+ human T-cells was determined by measuring the effect of a test compound on the activity using the cisbio HTRF™ technology.
Human CD4+ T cells were activated with CD3/CD28 for 3 days and expanded for an additional 4-6 days (7 to 9 days total). On day 0, frozen CD4+ T cells were thawed, treated with CD3/CD28 Dynabeads, and incubated at 37° C./5% CO2. On day 3, the beads were removed, and the cells were diluted to 5×10^5 cells/cm^2, placed in G-Rex10 flask, and incubated at 37° C./5% CO2. On day 7 to day 9 the cells were removed from the G-Rex flasks, counted and diluted back to 1×10^6 cells/ml in standard tissue culture flask.
The expanded CD4+ T-cells were centrifuged at 300×g for 10 minutes and resuspended to 0.5 million cells per ml (30,000 cells/well). 60 μl of CD4+ T cells were added per well to a 384 well plate containing 0.1 μL of varying concentrations of test compound in DMSO. The plates were incubated for 15 min at 37° C./5% CO2. 20 μl of diluted ImmunoCult™ ([…] Technologies, 1:12.5 in T cell assay media) were added to all wells of the plate (1:50 final assay concentration). The plates were incubated for an additional 20 to 24 hrs at 37° C./5% CO2. The plates were centrifuged at 300×g for 10 minutes. 16 μL of supernatant was removed and combined with 4 μl of IL-2 HTRF Abs. (cisbio kit). Plates were incubated for 3 hours at RT and read with an EnVision plate reader at 665 nm and 615 nm wavelengths.

[2] = target: Tropomyosin receptor kinase A (TRKA, NTRK1) (Homo sapiens (Human), UniProt P04629); assay: TRKA (NTRK1) enzyme Z'-LYTE assay; type: biochemical; conditions: arithmetic mean of count n; test compound 1 uM, ATP 1 mM
Description: Tropomyosin Receptor Kinase a (TRKA) Activity, % Inhibition
TRKA, also known as neurotrophic tyrosine kinase receptor type 1 (NTKR1) activity was determined by measuring the effect of a test compound on the activity against the NTRK1 enzyme using the ThermoFisher Z'-LYTE Assay fluorescence-based coupled enzyme format (www.thermofisher.com/selectscreen). […] The resulting effect value for the tested compound was compared to the assay controls to determine the % inhibition (%).

Chain of Tropomyosin receptor kinase A (TRKA, NTRK1) (P04629 33-796): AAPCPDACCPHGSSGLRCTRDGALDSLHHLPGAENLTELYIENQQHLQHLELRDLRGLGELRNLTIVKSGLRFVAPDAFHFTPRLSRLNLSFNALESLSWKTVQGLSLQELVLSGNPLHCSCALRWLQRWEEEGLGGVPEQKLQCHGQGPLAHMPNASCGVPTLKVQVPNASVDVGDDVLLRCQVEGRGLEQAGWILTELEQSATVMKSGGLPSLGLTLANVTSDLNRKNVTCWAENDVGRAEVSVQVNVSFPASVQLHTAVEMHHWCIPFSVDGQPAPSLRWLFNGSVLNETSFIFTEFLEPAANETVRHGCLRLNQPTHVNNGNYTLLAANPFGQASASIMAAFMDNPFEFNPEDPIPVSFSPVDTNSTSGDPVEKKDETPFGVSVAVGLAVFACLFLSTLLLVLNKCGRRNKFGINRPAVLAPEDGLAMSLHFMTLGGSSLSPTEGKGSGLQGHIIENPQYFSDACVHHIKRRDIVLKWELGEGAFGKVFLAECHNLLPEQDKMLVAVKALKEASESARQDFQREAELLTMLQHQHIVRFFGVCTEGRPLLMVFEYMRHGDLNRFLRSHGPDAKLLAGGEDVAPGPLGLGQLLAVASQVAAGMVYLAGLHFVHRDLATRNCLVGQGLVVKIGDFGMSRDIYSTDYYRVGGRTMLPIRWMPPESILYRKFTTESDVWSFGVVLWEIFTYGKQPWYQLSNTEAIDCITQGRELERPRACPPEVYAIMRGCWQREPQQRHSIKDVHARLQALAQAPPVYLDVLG

| pIC50 [1] | inhibition at 1 µM [2] | Structure (SMILES) |
| --- | --- | --- |
| 7.00 | 102% | CCN(C(=O)[C@H](C)N1CCOCC1)c1cc2nc(-c3n[nH]c4c3C[C@@H]3C[C@]3(C)C4)[nH]c2cc1C [Example 6, (S)—N-ethyl-N-(6-methyl-2-((4aS,5aR)-5a-methyl-1,4,4a,5,5a,6-hexahydrocyclopropa[f]indazol-3-yl)-1H-benzo[d]imidazol-5-yl)-2-morpholinopropanamide] |
| 7.17 | 104% | CN(C(=O)CC1CCOCC1)c1ccc2[nH]c(-c3n[nH]c4c3C[C@@H]3C[C@]3(C)C4)nc2c1 [Example 10, N-methyl-N-(2-((4aS,5aR)-5a-methyl-1,4,4a,5,5a,6-hexahydrocyclopropa[f]indazol-3-yl)-1H-benzo[d]imidazol-5-yl)-2-(tetrahydro-2H-pyran-4-yl)acetamide] |
| 7.60 | 94% | C[C@@H](C(=O)N(C)c1cc(F)c2[nH]c(-c3n[nH]c4c3C[C@@H]3C[C@]3(C)C4)nc2c1)C1CCOCC1 [Example 12, (R)—N-(7-fluoro-2-((4aS,5aR)-5a-methyl-1,4,4a,5,5a,6-hexahydrocyclopropa[f]indazol-3-yl)-1H-benzo[d]imidazol-5-yl)-N-methyl-2-(tetrahydro-2H-pyran-4-yl)propanamide] |
| 8.52 | 99% | C[C@@H](C(=O)N(C)c1ccc2[nH]c(-c3n[nH]c4c3C[C@@H]3C(F)(F)[C@]3(C)C4)nc2c1)N1CCOCC1 [Example 13, (S)—N-(2-((4aS,5aR)-5,5-difluoro-5a-methyl-1,4,4a,5,5a,6-hexahydrocyclopropa[f]indazol-3-yl)-1H-benzo[d]imidazol-5-yl)-N-methyl-2-morpholinopropanamide] |
| 7.38 | 92% | C[C@@H](C(=O)N(C)c1ccc2[nH]c(-c3n[nH]c4c3C[C@@H]3C[C@]3(C)C4)nc2c1)N1CCOCC1 [Example 14, (S)—N-methyl-N-(2-((4aS,5aR)-5a-methyl-1,4,4a,5,5a,6-hexahydrocyclopropa[f]indazol-3-yl)-1H-benzo[d]imidazol-5-yl)-2-morpholinopropanamide] |
| 7.38 | 107% | C[C@@H](C(=O)N(C)c1cc(F)c2[nH]c(-c3n[nH]c4c3C[C@@H]3C[C@]3(C)C4)nc2c1)N1CCOCC1 [Example 15, (S)—N-(7-fluoro-2-((4aS,5aR)-5a-methyl-1,4,4a,5,5a,6-hexahydrocyclopropa[f]indazol-3-yl)-1H-benzo[d]imidazol-5-yl)-N-methyl-2-morpholinopropanamide] |
| 7.19 | 116% | CCN(C(=O)[C@H](C)N1CCOCC1)c1cc(F)c2[nH]c(-c3n[nH]c4c3C[C@@H]3C[C@]3(C)C4)nc2c1 [Example 16, (S)—N-ethyl-N-(7-fluoro-2-((4aS,5aR)-5a-methyl-1,4,4a,5,5a,6-hexahydrocyclopropa[f]indazol-3-yl)-1H-benzo[d]imidazol-5-yl)-2-morpholinopropanamide] |
| 7.24 | 98% | COc1cc2[nH]c(-c3n[nH]c4c3C[C@@H]3C[C@]3(C)C4)nc2cc1N(C)C(=O)[C@H](C)N1CCOCC1 [Example 19, (S)—N-(6-methoxy-2-((4aS,5aR)-5a-methyl-1,4,4a,5,5a,6-hexahydrocyclopropa[f]indazol-3-yl)-1H-benzo[d]imidazol-5-yl)-N-methyl-2-morpholinopropanamide] |
| 7.28 | 98% | C[C@@H](C(=O)N(C)c1cc2nc(-c3n[nH]c4c3C[C@@H]3C[C@]3(C)C4)[nH]c2cc1Br)N1CCOCC1 [Example 20, (S)—N-(6-bromo-2-((4aS,5aR)-5a-methyl-1,4,4a,5,5a,6-hexahydrocyclopropa[f]indazol-3-yl)-1H-benzo[d]imidazol-5-yl)-N-methyl-2-morpholinopropanamide] |
| 7.01 | 91% | C[C@@H](C(=O)N(C)c1cc2nc(-c3n[nH]c4c3C[C@@H]3C[C@]3(C)C4)[nH]c2cc1C#N)N1CCOCC1 [Example 21, (S)—N-(6-cyano-2-((4aS,5aR)-5a-methyl-1,4,4a,5,5a,6-hexahydrocyclopropa[f]indazol-3-yl)-1H-benzo[d]imidazol-5-yl)-N-methyl-2-morpholinopropanamide] |
| 6.97 | 105% | C[C@@H](C(=O)N(C)c1cc2nc(-c3n[nH]c4c3C[C@@H]3C[C@]3(C)C4)[nH]c2c(F)c1F)N1CCOCC1 [Example 24, (S)—N-(6,7-difluoro-2-((4aS,5aR)-5a-methyl-1,4,4a,5,5a,6-hexahydrocyclopropa[f]indazol-3-yl)-1H-benzo[d]imidazol-5-yl)-N-methyl-2-morpholinopropanamide] |
| 7.00 | 101% | CCN(C(=O)[C@H](C)N1CCOCC1)c1cc2nc(-c3n[nH]c4c3C[C@@H]3C[C@]3(C)C4)[nH]c2c(F)c1F [Example 25, (S)—N-(6,7-difluoro-2-((4aS,5aR)-5a-methyl-1,4,4a,5,5a,6-hexahydrocyclopropa[f]indazol-3-yl)-1H-benzo[d]imidazol-5-yl)-N-ethyl-2-morpholinopropanamide] |
| 6.67 | 99% | Cc1cc2[nH]c(-c3n[nH]c4c3C[C@@H]3C[C@]3(C)C4)nc2cc1N(C)C(=O)CN1CCO[C@H](CO)C1 [Example 26, 2-((S)-2-(hydroxymethyl)morpholino)-N-methyl-N-(6-methyl-2-((4aS,5aR)-5a-methyl-1,4,4a,5,5a,6-hexahydrocyclopropa[f]indazol-3-yl)-1H-benzo[d]imidazol-5-yl)acetamide] |
| 7.12 | 99% | Cc1cc2[nH]c(-c3n[nH]c4c3C[C@@H]3C[C@]3(C)C4)nc2cc1N(C)C(=O)CN1CCO[C@@H](C)C1 [Example 31, N-Methyl-N-(6-methyl-2-((4aS,5aR)-5a-methyl-1,4,4a,5,5a,6-hexahydrocyclopropa[f]indazol-3-yl)-1H-benzo[d]imidazol-5-yl)-2-((S)-2-methylmorpholino)acetamide] |
| 7.08 | 99% | Cc1cc2[nH]c(-c3n[nH]c4c3C[C@@H]3C[C@]3(C)C4)nc2cc1N(C)C(=O)CN1C[C@@H](C)O[C@H](C)C1 [Example 32, 2-((2R,6R)-2,6-Dimethylmorpholino)-N-methyl-N-(6-methyl-2-((4aS,5aR)-5a-methyl-1,4,4a,5,5a,6-hexahydrocyclopropa[f]indazol-3-yl)-1H-benzo[d]imidazol-5-yl)acetamide] |
| 6.99 | 98% | Cc1cc2[nH]c(-c3n[nH]c4c3C[C@@H]3C[C@]3(C)C4)nc2cc1N(C)C(=O)CN1CCOCC1 [Example 34, N-Methyl-N-(6-methyl-2-((4aS,5aR)-5a-methyl-1,4,4a,5,5a,6-hexahydrocyclopropa[f]indazol-3-yl)-1H-benzo[d]imidazol-5-yl)-2-morpholinoacetamide] |
| 6.89 | 96% | C[C@@H](C(=O)N(C)c1cc(Br)c2[nH]c(-c3n[nH]c4c3C[C@@H]3C[C@]3(C)C4)nc2c1)N1CCOCC1 [Example 37, (S)—N-(7-bromo-2-((4aS,5aR)-5a-methyl-1,4,4a,5,5a,6-hexahydrocyclopropa[f]indazol-3-yl)-1H-benzo[d]imidazol-5-yl)-N-methyl-2-morpholinopropanamide] |
